Numbers after ± are expanded uncertainties.
Settings: Liquid

In the case of CCCCCC(=O)O [hexanoic acid], the “vapor or sublimation pressure” value (413.4 K) is reported as 9.52 ± 0.54 kPa, the “vapor or sublimation pressure” value (422.88 K) is reported as 14.56 ± 0.57 kPa and the “vapor or sublimation pressure” value (429.92 K) is reported as 19.59 ± 0.59 kPa. The “vapor or sublimation pressure” value (435.62 K) was 24.63 ± 0.62 kPa, the “vapor or sublimation pressure” value (440.03 K) was 29.64 ± 0.64 kPa and the “vapor or sublimation pressure” value (444.26 K) was 34.68 ± 0.67 kPa. For the same molecule, the “vapor or sublimation pressure” value (447.88 K) was 39.72 ± 0.69 kPa and the “vapor or sublimation pressure” value (451.43 K) was 44.75 ± 0.72 kPa.
In the case of CCCCCCC(=O)O [heptanoic acid], the “vapor or sublimation pressure” value (413.48 K) is reported as 4.7 ± 0.52 kPa, the “vapor or sublimation pressure” value (426.48 K) is reported as 8.63 ± 0.54 kPa and the “vapor or sublimation pressure” value (435.07 K) is reported as 12.56 ± 0.56 kPa. The “vapor or sublimation pressure” value (441.33 K) was 16.57 ± 0.58 kPa, the “vapor or sublimation pressure” value (446.4 K) was 20.63 ± 0.6 kPa and the “vapor or sublimation pressure” value (451 K) was 24.65 ± 0.62 kPa. For the same molecule, the “vapor or sublimation pressure” value (453.8 K) was 27.67 ± 0.63 kPa.
With CC(C)C(=O)O [2-methylpropanoic acid] the “vapor or sublimation pressure” value (375.21 K) was 14.55 ± 0.57 kPa, the “vapor or sublimation pressure” value (382.14 K) was 19.58 ± 0.59 kPa and the “vapor or sublimation pressure” value (391.77 K) was 29.65 ± 0.64 kPa. For the same molecule, the “vapor or sublimation pressure” value (399.43 K) was 39.72 ± 0.7 kPa, the “vapor or sublimation pressure” value (405.44 K) was 49.79 ± 0.75 kPa and the “vapor or sublimation pressure” value (410.75 K) was 59.85 ± 0.8 kPa. For the same molecule, the “vapor or sublimation pressure” value (415.51 K) was 69.92 ± 0.85 kPa, the “vapor or sublimation pressure” value (419.77 K) was 79.99 ± 0.9 kPa and the “vapor or sublimation pressure” value (423.36 K) was 90.07 ± 0.95 kPa. For the same molecule, the “vapor or sublimation pressure” value (424.86 K) was 95.1 ± 0.98 kPa and the “vapor or sublimation pressure” value (426.16 K) was 100.59 ± 1 kPa.
With CCC(=O)O [propanoic acid] the “vapor or sublimation pressure” value (361.52 K) was 14.56 ± 0.57 kPa, the “vapor or sublimation pressure” value (368.37 K) was 19.58 ± 0.59 kPa and the “vapor or sublimation pressure” value (378.95 K) was 29.65 ± 0.64 kPa. For the same molecule, the “vapor or sublimation pressure” value (386.74 K) was 39.73 ± 0.7 kPa, the “vapor or sublimation pressure” value (392.93 K) was 49.79 ± 0.75 kPa and the “vapor or sublimation pressure” value (398.09 K) was 59.86 ± 0.8 kPa. The “vapor or sublimation pressure” value (402.65 K) was 69.92 ± 0.85 kPa, the “vapor or sublimation pressure” value (406.8 K) was 79.99 ± 0.9 kPa and the “vapor or sublimation pressure” value (410.33 K) was 90.07 ± 0.95 kPa. The “vapor or sublimation pressure” value (411.97 K) was 95.1 ± 0.98 kPa and the “vapor or sublimation pressure” value (413.74 K) was 101.21 ± 1 kPa.
For CCCCC(=O)O [pentanoic acid], the “vapor or sublimation pressure” value (403.15 K) was 14.56 ± 0.57 kPa, the “vapor or sublimation pressure” value (410.71 K) was 19.59 ± 0.59 kPa and the “vapor or sublimation pressure” value (417.07 K) was 24.63 ± 0.62 kPa. For the same molecule, the “vapor or sublimation pressure” value (422.19 K) was 29.65 ± 0.65 kPa, the “vapor or sublimation pressure” value (430.08 K) was 39.72 ± 0.7 kPa and the “vapor or sublimation pressure” value (436.48 K) was 49.78 ± 0.75 kPa. For the same molecule, the “vapor or sublimation pressure” value (441.89 K) was 59.85 ± 0.8 kPa, the “vapor or sublimation pressure” value (446.45 K) was 69.92 ± 0.85 kPa and the “vapor or sublimation pressure” value (448.48 K) was 74.96 ± 0.88 kPa. The “vapor or sublimation pressure” value (450.35 K) was 79.99 ± 0.9 kPa and the “vapor or sublimation pressure” value (451.92 K) was 85.03 ± 0.93 kPa.
With CCCC(=O)O [butanoic acid] the “vapor or sublimation pressure” value (383.55 K) was 14.56 ± 0.57 kPa, the “vapor or sublimation pressure” value (390.87 K) was 19.58 ± 0.59 kPa and the “vapor or sublimation pressure” value (401.32 K) was 29.65 ± 0.64 kPa. The “vapor or sublimation pressure” value (409 K) was 39.72 ± 0.7 kPa, the “vapor or sublimation pressure” value (415 K) was 49.79 ± 0.75 kPa and the “vapor or sublimation pressure” value (420.22 K) was 59.86 ± 0.8 kPa. For the same molecule, the “vapor or sublimation pressure” value (424.81 K) was 69.92 ± 0.85 kPa, the “vapor or sublimation pressure” value (428.96 K) was 79.99 ± 0.9 kPa and the “vapor or sublimation pressure” value (432.61 K) was 90.07 ± 0.95 kPa. For the same molecule, the “vapor or sublimation pressure” value (434.51 K) was 95.1 ± 0.97 kPa and the “vapor or sublimation pressure” value (436.05 K) was 100.04 ± 1 kPa.
In the case of CC(C)CC(=O)O [3-methylbutanoic acid], the “vapor or sublimation pressure” value (396.05 K) is reported as 14.56 ± 0.57 kPa, the “vapor or sublimation pressure” value (402.9 K) is reported as 19.59 ± 0.59 kPa and the “vapor or sublimation pressure” value (412.87 K) is reported as 29.65 ± 0.64 kPa. The “vapor or sublimation pressure” value (420.7 K) was 39.72 ± 0.7 kPa, the “vapor or sublimation pressure” value (427.18 K) was 49.78 ± 0.75 kPa and the “vapor or sublimation pressure” value (432.62 K) was 59.86 ± 0.8 kPa. For the same molecule, the “vapor or sublimation pressure” value (437.44 K) was 69.92 ± 0.85 kPa, the “vapor or sublimation pressure” value (441.6 K) was 79.99 ± 0.9 kPa and the “vapor or sublimation pressure” value (445.16 K) was 90.07 ± 0.95 kPa. The “vapor or sublimation pressure” value (446.6 K) was 95.1 ± 0.98 kPa and the “vapor or sublimation pressure” value (447.92 K) was 100.08 ± 1 kPa.

From the NIST ThermoML archive (doi:10.1021/je034180e)
